# Values of other authors as cited in US9155308B2, “Agricultural pesticide formulation” (priority 2013, dated 2015).
# Settings: based on animal studies
structure (smiles),measurement,setting,value
"Cc1c(COC(=O)[C@@H]2[C@H](/C=C(\Cl)C(F)(F)F)C2(C)C)cccc1-c1ccccc1 (racemic) [bifenthrin, Bifenthrin]",chronic reference dose (RfD),daily exposure,0.013 mg/kg bodyweight/day
same,acute reference dose (RfD),one-time exposure,0.328 mg/kg bodyweight/day
